These results are taken from patent US20020183384A1, “Methods of treating nuclear factor-kappa B mediated diseases and disorders” (priority 2001, published 2002).

The structures appear in SMILES notation. Read-outs that look alike come from different tables or passages of the source.

The test deals with NF-κB mediated transcription. In words: NF-κB driven β-lactamase reporter assay in ECV-304 NF-κB.βlaZ cells (AURORA CCF2 fluorescence). It is filed as cell-based, human. Conditions: 10 μM compound, ECV-304 NF-κB.βlaZ cells stimulated with 10 ng/mL TNF-α or 100 pg/mL IL-1β, 6 hours at 37° C., inhibition of maximum blue/green ratio; for inhibition at 10 µM: Homo sapiens, read-out: Percent Inhibition at 10 μM. The method in brief:
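ECV-304 cells (clone 1E8) stably carrying a β-lactamase reporter driven by 5 HIV-1 NF-κB sites, plated in M-199 with 2% FBS, compound at 10 μM final. CCF2 read at 395 nm excitation, blue 460 nm/green 530 nm emission ratio; IC50 from dose-response curve.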

By inhibition is commonly meant how much of the control response was suppressed.

`CC(C)c1cccc(C(C)C)c1NS(=O)(=O)NC(=O)Oc1c(C(C)(C)C)cccc1C(C)(C)C` [Example 5, Carbamic acid, [[[2,6-bis(1-methylethyl)phenyl]amino]sulfonyl]-, 2,6-bis(1,1-dimethylethyl)phenyl ester]: the inhibition at 10 µM came out at 56.4%.
The same measure, in the same setting: the same measure for `CC(=O)c1cc(C(C)C)c(OC(=O)NS(=O)(=O)Oc2c(C(C)C)cccc2C(C)C)c(C(C)C)c1` [Example 183, Carbamic acid, [[2,6-bis(1-methylethyl)phenoxy]sulfonyl]-, 4-acetyl-2,6-bis(1-methylethyl)phenyl ester]: less than 10%; for `CC(C)c1cccc(C(C)C)c1OC(=O)NS(=O)(=O)N1CCCCC1` [Example 59, Carbamic acid, (1-piperidinylsulfonyl)-, 2,6-bis(1-methylethyl)phenyl ester]: less than 10%.
`CC(C)c1cccc(C(C)C)c1OS(=O)(=O)NC(=O)OC12CC3CC(CC(C3)C1)C2` [Example 136, Carbamic acid, [[2,6-bis(1-methylethyl)phenoxy]sulfonyl]-, tricyclo[3.3.1.1^3,7]-dec-1-yl ester]: the inhibition at 10 µM (ECV-304, 6 h) was less than 10%.
Still for that read-out and setting: in the case of `CC(C)c1cccc(C(C)C)c1OS(=O)(=O)NC(=O)NC(c1ccccc1)(c1ccccc1)c1ccccc1` [Example 223, Sulfamic acid, [[(triphenylmethyl)amino]carbonyl]-, 2,6-bis(1-methylethyl)phenyl ester] it was 68.2%; in that of `CC(C)c1cc(C(C)C)c(CC(=O)NS(=O)(=O)Oc2c(C(C)C)cc(NS(=O)(=O)c3cccc4c(N(C)C)cccc34)cc2C(C)C)c(C(C)C)c1` [Example 226, [(2,4,6-Triisopropyl-phenyl)-acetyl]-sulfamic acid 4-(5-dimethylamino-naphthalene-1-sulfonylamino)-2,6-diisopropyl-phenyl ester], 46.3%.
Take `CCCCCCCCCCCCOC(=O)NS(=O)(=O)Nc1c(C(C)C)cccc1C(C)C` [Example 250, Carbamic acid, [[[2,6-bis(1-methylethyl)phenyl]amino]sulfonyl]-, dodecyl ester]: the “Percent Inhibition at 10 μM” value (10 µM) is listed as less than 10%.
Consider `CC(C)c1cc(O)cc(C(C)C)c1OC(=O)NS(=O)(=O)Oc1c(C(C)C)cccc1C(C)C` [Example 132, Carbamic acid, [[2,6-bis(1-methylethyl)phenoxy]sulfonyl]-, 4-hydroxy-2,6-bis(1-methylethyl)phenyl ester], for which the inhibition at 10 µM is less than 10%.
Consider `CC(C)c1cccc(C(C)C)c1OS(=O)(=O)NC(=O)C(C)(c1ccccc1)c1ccccc1` [Example 171, (2,2-Diphenyl-propionyl)-sulfamic acid 2,6-diisopropyl-phenyl ester], for which the inhibition at 10 µM (ECV-304, 6 h) is 62.2%.
Same read-out and setting: the same measure for `CSCC[C@H](N)C(=O)Nc1cc(C(C)C)c(OS(=O)(=O)NC(=O)Cc2c(C(C)C)cc(C(C)C)cc2C(C)C)c(C(C)C)c1` [Example 201, [2-(2,4,6-Triisopropyl-phenyl)-acetyl]-sulfamic acid 4-((S)-2-amino-4-methylsulfanyl-butyrylamino)-2,6-diisopropyl-phenyl ester]: 87.1%; for `CC(C)c1cccc(C(C)C)c1OS(=O)(=O)NC(=O)CC1CCCCC1` [Example 155, Cyclohexylacetyl-sulfamic acid 2,6-diisopropyl-phenyl ester]: less than 10%.
For the compound `Cc1cc(C(C)(C)C)c(OC(=O)NS(=O)(=O)NCC(c2ccccc2)c2ccccc2)c(C(C)(C)C)c1` [Example 12, Carbamic acid, [[(2,2-diphenylethyl)amino]sulfonyl]-, 2,6-bis(1,1-dimethylethyl)-4-methylphenyl ester], the inhibition at 10 µM was found to be 57%.
Same read-out and setting: in the case of `CC(C)c1cccc(C(C)C)c1OC(=O)NS(=O)(=O)NC(=O)Oc1c(C(C)C)cccc1C(C)C` [Example 141, Carbamic acid, sulfonylbis-, bis[2,6-bis(1-methylethyl)phenyl] ester] it was less than 10%.
Same read-out and setting: in the case of `CC(C)c1cc(F)cc(C(C)C)c1OC(=O)NS(=O)(=O)Oc1c(C(C)C)cccc1C(C)C` [Example 184, Carbamic acid, [[2,6-bis(1-methylethyl)phenoxy]sulfonyl]-, 4-fluoro-2,6-bis(1-methylethyl)phenyl ester] it was 21.2%.
With `CC(C)c1cccc(C(C)C)c1NC(=O)NS(=O)(=O)N(CC1CCCO1)CC1CCCO1` (stereo not drawn) [Example 41, N-[2,6-bis(1-methylethyl)phenyl]-N′-[[bis[(tetrahydro-2-furanyl)methyl]amino]sulfonyl]-urea,], the “Percent Inhibition at 10 μM” value was less than 10%.
As to `CC(C)c1cccc(C(C)C)c1NC(=O)NS(=O)(=O)N1CCCCC1` [Example 71, Urea, N-[2,6-bis(1-methylethyl)phenyl]-N′-(1-piperidinylsulfonyl)-], for the setting “ECV-304, 6 h”, the inhibition at 10 µM is less than 10%.
Take `CC(C)c1cc(C(C)C)c(CC(=O)NS(=O)(=O)Oc2c(C(C)C)cc(NC(=O)CCN)cc2C(C)C)c(C(C)C)c1` [Example 220, [2-(2,4,6-Triisopropyl-phenyl)-acetyl]-sulfamic acid 4-(3-amino-propionylamino)-2,6-diisopropyl-phenyl ester; compound with trifluoro-acetic acid]: the inhibition at 10 µM (ECV-304, 6 h) was determined as 65.5%.
Still for that read-out and setting: in the case of `CC(C)c1cccc(C(C)C)c1OS(=O)(=O)NC(=O)C(c1ccccc1)C1CCCC1` (stereo not drawn) [Example 161, (Cyclopentyl-phenyl-acetyl)-sulfamic acid 2,6-diisopropyl-phenyl ester] it was 51.5%.
`CC(C)c1cccc(C(C)C)c1OS(=O)(=O)NC(=O)Oc1c(C(C)C)c(C(C)C)c(F)c(C(C)C)c1C(C)C` [Example 116, Carbamic acid, [[2,6-bis(1-methylethyl)phenoxy]sulfonyl]-, 4-fluoro-2,3,5,6-tetrakis(1-methylethyl)phenyl ester]: the inhibition at 10 µM is less than 10%.
Turning to `CCCCCCCCCCCCOC(=O)NS(=O)(=O)OCCCCCCCCCCCC` [Example 61, Carbamic acid, [(dodecyloxy)sulfonyl]-, dodecyl ester], for the setting “ECV-304, 6 h”, the inhibition at 10 µM was determined as 27.4%.
Take `CC(C)c1cc(C(C)C)c(CC(=O)NS(=O)(=O)Oc2c(C(C)C)cc(NC(=O)CNC(=O)OC(C)(C)C)cc2C(C)C)c(C(C)C)c1` [Example 198, [(3,5-Diisopropyl-4-{[(2,4,6-triisopropyl-phenyl)-acetyl]sulfamoyloxy}-phenylcarbamoyl)-methyl]-carbamic acid tert-butyl ester]: the inhibition at 10 µM (ECV-304, 6 h) was determined as 75.8%.
Take `Cc1cc(C(C)(C)C)c(OC(=O)NS(=O)(=O)Oc2c(C(C)C)cccc2C(C)C)c(C(C)(C)C)c1` [Example 119, Carbamic acid, [[2,6-bis(1-methylethyl)phenoxy]sulfonyl]-, 2,6-bis(1,1-dimethylethyl)-4-methylphenyl ester]: the inhibition at 10 µM is 56.6%.
Consider `COc1cc(C(C)(C)C)c(OC(=O)NS(=O)(=O)Nc2c(C(C)C)cccc2C(C)C)c(C(C)(C)C)c1` [Example 50, Carbamic acid, [[[2,6-bis(1-methylethyl)phenyl]amino]sulfonyl]-, 2,6-bis(1,1-dimethylethyl)-4-methoxyphenyl ester], for which the inhibition at 10 µM was found to be 39.1%.
The same measure, in the same setting: in the case of `Cc1cc(C(C)(C)C)c(OC(=O)NS(=O)(=O)N(C)CCc2ccccc2)c(C(C)(C)C)c1` [Example 38, Carbamic acid, [[methyl(2-phenylethyl)amino]sulfonyl]-, 2,6-bis(1,1-dimethylethyl)-4-methylphenyl ester] it was 31.5%.
On to `CC(C)c1cccc(C(C)C)c1OS(=O)(=O)NC(=O)Cc1cccs1` [Example 148, (Thiophen-2-yl-acetyl)-sulfamic acid 2,6-diisopropyl-phenyl ester], for which the inhibition at 10 µM (ECV-304, 6 h) is less than 10%.
Same read-out and setting: in the case of `CC(C)c1cccc(C(C)C)c1OS(=O)(=O)NC(=O)C(=O)c1ccccc1` [Example 157, (Oxo-phenyl-acetyl)-sulfamic acid 2,6-diisopropyl-phenyl ester] it was less than 10%.
On to `CC1(C)OCC(NC(=O)NS(=O)(=O)NC2COC(C)(C)OC2c2ccccc2)C(c2ccccc2)O1` (single isomer, unassigned) [Example 105, Urea, N-(2,2-dimethyl-4-phenyl-1,3-dioxan-5-yl)-N′-[[(2,2-dimethyl-4-phenyl-1,3-dioxan-5-yl)amino]sulfonyl]-, stereoisomer], for which the “Percent Inhibition at 10 μM” value is on record as less than 10%.
Turning to `COc1cc(C(C)(C)C)c(OC(=O)NS(=O)(=O)Oc2c(C(C)C)cccc2C(C)C)c(C(C)(C)C)c1` [Example 115, Carbamic acid, [[2,6-bis(1-methylethyl)phenoxy]sulfonyl]-, 2,6-bis(1,1-dimethylethyl)-4-methoxyphenyl ester], the inhibition at 10 µM was found to be 39%.
Still for that read-out and setting: the same measure for `COC(=O)NS(=O)(=O)Oc1c(C(C)C)cccc1C(C)C` [Example 56, Carbamic acid, [[2,6-bis(1-methylethyl)phenoxy]sulfonyl]-, methyl ester]: less than 10%.
With `CC(C)c1cc(C(C)C)c(CC(=O)NS(=O)(=O)Oc2c(C(C)C)cccc2C(C)C)c(C(C)C)c1` [Example 120, Sulfamic acid, [[2,4,6-tris(1-methylethyl)phenyl]acetyl]-, 2,6-bis(1-methylethyl)phenyl ester], the inhibition at 10 µM (ECV-304, 6 h) amounted to 55%.
